Like-named read-outs stand apart in the source and are kept apart here.
How the values were obtained:
Assay in all cases: SelectScreen Kinase Profiling, single point inhibition and IC50 for off-target kinases
Format in all cases: biochemical
off-target kinases [1] = target: off-target kinases (Homo sapiens, UniProt O75676); settings: RPS6KA4 (MSK2), ZLYTE, ATP Km app
off-target kinases [2] = target: off-target kinases (Homo sapiens, UniProt P00519, G250E); settings: ABL1 G250E, ATP Km app, ZLYTE
off-target kinases [3] = target: off-target kinases (Homo sapiens, UniProt P07949, G691S); settings: RET G691S, mutant y, LanthaScreen Binding
off-target kinases [4] = target: off-target kinases (Homo sapiens, UniProt P08069); settings: IGF1R, ZLYTE, ATP Km app
off-target kinases [5] = target: off-target kinases (Homo sapiens, UniProt P35916); settings: FLT4 (VEGFR3), ATP Km app, ZLYTE
off-target kinases [6] = target: off-target kinases (Homo sapiens, UniProt P36888); settings: FLT3, ATP Km app, ZLYTE
off-target kinases [7] = target: off-target kinases (Homo sapiens, UniProt Q02763); settings: TEK (Tie2), ZLYTE, ATP Km app
off-target kinases [8] = target: off-target kinases (Homo sapiens, UniProt Q02779); settings: MAP3K10 (MLK2), LanthaScreen Binding
off-target kinases [9] = target: off-target kinases (Homo sapiens, UniProt Q15208); settings: STK38 (NDR), LanthaScreen Binding
off-target kinases [10] = target: off-target kinases (Homo sapiens, UniProt Q99558); settings: MAP3K14 (NIK), LanthaScreen Binding

Sequence of off-target kinases (Homo sapiens, UniProt P36888) (P36888 27-993): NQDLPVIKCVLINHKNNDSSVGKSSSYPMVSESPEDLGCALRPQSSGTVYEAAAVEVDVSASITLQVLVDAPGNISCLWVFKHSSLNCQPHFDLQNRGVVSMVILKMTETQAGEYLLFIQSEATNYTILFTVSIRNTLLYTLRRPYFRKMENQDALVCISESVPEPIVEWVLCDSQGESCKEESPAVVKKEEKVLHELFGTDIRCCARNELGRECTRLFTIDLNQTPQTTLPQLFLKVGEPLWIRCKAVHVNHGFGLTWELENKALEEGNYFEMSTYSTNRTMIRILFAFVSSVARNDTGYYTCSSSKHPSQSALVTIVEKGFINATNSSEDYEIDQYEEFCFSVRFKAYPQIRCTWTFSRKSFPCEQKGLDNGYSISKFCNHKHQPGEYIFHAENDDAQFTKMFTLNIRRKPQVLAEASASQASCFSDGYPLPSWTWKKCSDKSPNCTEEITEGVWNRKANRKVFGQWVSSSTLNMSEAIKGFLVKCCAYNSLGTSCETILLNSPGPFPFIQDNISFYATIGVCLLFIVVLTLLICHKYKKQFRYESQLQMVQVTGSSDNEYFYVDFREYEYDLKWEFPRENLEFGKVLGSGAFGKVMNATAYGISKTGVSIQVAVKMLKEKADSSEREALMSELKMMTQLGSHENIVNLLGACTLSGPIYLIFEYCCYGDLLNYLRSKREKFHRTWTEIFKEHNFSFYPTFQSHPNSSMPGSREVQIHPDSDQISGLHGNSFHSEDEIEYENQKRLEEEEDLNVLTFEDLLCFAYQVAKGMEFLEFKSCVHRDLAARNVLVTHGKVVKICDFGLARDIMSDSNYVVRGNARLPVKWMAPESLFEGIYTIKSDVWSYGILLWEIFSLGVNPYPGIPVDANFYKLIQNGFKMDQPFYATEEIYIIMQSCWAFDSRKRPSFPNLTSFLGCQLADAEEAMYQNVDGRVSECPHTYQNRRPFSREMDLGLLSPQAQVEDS
Sequence of off-target kinases (Homo sapiens, UniProt P35916) (P35916 25-1363): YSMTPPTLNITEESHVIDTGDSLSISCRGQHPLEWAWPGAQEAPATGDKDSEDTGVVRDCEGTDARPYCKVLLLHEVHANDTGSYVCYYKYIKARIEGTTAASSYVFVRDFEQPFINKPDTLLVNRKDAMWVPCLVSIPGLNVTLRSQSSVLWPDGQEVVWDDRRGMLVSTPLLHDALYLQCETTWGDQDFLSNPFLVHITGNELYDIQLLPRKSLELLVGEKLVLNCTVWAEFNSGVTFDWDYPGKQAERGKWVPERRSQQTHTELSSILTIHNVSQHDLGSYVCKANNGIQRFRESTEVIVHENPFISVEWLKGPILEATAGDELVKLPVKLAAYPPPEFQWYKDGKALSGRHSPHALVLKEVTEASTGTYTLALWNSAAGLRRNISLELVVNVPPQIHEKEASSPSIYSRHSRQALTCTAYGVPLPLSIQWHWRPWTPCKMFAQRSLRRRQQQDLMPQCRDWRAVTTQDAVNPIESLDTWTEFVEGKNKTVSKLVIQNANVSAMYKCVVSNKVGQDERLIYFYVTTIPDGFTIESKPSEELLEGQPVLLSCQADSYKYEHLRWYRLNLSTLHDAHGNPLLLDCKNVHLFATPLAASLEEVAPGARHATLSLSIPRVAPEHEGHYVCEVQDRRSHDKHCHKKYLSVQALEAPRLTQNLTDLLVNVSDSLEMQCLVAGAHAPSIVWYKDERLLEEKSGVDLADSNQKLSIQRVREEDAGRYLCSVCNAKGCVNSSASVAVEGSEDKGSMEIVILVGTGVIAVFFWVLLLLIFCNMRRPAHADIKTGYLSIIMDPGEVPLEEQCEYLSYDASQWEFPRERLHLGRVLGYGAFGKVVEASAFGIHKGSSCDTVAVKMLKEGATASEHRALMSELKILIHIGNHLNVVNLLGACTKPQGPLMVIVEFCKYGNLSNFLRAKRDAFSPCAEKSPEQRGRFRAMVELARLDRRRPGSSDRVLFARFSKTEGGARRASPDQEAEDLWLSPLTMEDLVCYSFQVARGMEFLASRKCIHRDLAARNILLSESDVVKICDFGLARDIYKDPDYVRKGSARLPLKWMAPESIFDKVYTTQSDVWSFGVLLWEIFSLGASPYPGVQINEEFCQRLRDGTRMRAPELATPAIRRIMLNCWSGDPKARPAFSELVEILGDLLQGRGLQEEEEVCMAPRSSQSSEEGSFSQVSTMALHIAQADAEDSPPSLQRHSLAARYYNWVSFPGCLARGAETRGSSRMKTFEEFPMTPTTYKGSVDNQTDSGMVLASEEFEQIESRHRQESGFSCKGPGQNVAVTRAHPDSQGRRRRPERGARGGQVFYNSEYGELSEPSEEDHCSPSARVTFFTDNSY
Sequence of off-target kinases (Homo sapiens, UniProt Q15208) (Q15208 whole entry): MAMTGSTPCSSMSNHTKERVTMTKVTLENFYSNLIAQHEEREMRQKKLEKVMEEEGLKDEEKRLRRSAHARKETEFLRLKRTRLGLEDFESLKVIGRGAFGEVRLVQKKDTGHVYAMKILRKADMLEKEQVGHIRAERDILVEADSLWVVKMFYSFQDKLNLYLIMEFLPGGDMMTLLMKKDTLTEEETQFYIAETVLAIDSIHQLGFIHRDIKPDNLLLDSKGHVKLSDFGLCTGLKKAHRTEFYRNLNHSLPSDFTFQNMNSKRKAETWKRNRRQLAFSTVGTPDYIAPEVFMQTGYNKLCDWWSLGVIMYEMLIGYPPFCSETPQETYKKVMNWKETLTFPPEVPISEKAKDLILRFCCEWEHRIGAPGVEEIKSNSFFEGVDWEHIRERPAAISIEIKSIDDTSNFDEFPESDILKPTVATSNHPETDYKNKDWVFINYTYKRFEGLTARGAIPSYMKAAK
Sequence of off-target kinases (Homo sapiens, UniProt P07949, G691S) (P07949 29-1114 G691S): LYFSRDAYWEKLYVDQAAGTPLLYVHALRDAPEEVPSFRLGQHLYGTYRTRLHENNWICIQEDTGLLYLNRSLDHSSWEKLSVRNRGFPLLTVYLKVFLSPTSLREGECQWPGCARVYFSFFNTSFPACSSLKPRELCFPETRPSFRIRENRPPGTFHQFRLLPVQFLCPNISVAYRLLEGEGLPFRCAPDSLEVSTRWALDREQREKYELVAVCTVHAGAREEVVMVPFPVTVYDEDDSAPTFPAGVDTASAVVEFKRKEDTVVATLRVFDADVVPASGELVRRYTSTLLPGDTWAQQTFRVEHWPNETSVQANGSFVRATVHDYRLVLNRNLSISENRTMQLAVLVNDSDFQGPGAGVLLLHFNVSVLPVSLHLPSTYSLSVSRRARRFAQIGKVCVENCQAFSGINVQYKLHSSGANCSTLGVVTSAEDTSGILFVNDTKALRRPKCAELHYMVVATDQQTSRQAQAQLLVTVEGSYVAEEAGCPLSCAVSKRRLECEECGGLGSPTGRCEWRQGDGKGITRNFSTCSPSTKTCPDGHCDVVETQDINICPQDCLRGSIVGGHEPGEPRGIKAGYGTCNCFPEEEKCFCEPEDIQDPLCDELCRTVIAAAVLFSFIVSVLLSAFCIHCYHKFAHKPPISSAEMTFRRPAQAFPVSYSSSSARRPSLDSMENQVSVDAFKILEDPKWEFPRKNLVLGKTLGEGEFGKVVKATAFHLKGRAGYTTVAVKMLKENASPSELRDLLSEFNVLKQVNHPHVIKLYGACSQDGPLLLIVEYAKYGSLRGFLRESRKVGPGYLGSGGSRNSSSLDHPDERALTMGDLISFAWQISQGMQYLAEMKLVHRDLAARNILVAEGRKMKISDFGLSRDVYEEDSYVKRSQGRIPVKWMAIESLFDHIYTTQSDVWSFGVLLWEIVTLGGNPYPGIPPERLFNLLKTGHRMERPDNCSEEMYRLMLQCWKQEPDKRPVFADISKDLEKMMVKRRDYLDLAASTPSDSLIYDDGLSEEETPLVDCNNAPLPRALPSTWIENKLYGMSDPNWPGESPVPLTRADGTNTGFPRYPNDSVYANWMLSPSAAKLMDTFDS
Sequence of off-target kinases (Homo sapiens, UniProt O75676) (O75676 whole entry): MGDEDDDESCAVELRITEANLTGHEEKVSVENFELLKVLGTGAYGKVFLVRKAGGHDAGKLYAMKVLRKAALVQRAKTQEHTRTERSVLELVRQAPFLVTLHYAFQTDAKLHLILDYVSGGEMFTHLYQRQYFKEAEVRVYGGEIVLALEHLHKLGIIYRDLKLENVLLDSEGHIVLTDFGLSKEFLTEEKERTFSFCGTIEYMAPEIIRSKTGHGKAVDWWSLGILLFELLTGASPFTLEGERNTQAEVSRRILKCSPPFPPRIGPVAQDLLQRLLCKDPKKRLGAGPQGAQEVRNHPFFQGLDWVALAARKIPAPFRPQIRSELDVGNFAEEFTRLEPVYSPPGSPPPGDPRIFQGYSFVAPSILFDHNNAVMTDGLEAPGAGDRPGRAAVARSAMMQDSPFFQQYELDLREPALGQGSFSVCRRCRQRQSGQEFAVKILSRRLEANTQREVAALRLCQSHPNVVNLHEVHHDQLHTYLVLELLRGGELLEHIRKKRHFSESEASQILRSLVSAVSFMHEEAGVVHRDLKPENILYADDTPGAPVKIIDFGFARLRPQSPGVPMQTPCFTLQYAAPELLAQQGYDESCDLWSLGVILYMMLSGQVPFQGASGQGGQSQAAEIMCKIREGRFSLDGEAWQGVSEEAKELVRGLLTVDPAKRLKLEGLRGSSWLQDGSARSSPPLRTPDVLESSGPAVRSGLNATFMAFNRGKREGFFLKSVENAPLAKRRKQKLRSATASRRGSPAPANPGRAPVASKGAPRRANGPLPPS

With `N#Cc1cc(-c2ncnc(Nc3ccc(N4CCN(C5COC5)CC4)cc3)n2)ccc1OC1CCOCC1` [Compound 1, 5-(4-((4-(4-(oxetan-3-yl)piperazin-1-yl)phenyl)amino)-1,3,5-triazin-2-yl)-2-((tetrahydro-2H-pyran-4-yl)oxy)benzonitrile] the inhibition (off-target kinases [1]; read-out: % Inhibition 1) was 0%, the inhibition (off-target kinases [1]; read-out: % Inhibition 2) was 2% and the inhibition (off-target kinases [1]; read-out: % Inhibition Avg) was 1%. It also gave an inhibition (off-target kinases [2]; read-out: % Inhibition 1) of 60%, an inhibition (off-target kinases [2]; read-out: % Inhibition 2) of 61% and an inhibition (off-target kinases [2]; read-out: % Inhibition Avg) of 60%. It also gave an inhibition (off-target kinases [3]; read-out: % Inhibition 1) of 19%, an inhibition (off-target kinases [3]; read-out: % Inhibition 2) of 18% and an inhibition (off-target kinases [3]; read-out: % Inhibition Avg) of 18%. For the same molecule, the inhibition (off-target kinases [4]; read-out: % Inhibition 1) was 1%, the inhibition (off-target kinases [4]; read-out: % Inhibition 2) was 2% and the inhibition (off-target kinases [4]; read-out: % Inhibition Avg) was 1%. For the same molecule, the inhibition (off-target kinases [5]; read-out: % Inhibition 1) was 64%, the inhibition (off-target kinases [5]; read-out: % Inhibition 2) was 60% and the inhibition (off-target kinases [5]; read-out: % Inhibition Avg) was 62%. For the same molecule, the inhibition (off-target kinases [6]; read-out: % Inhibition 1) was 42%, the inhibition (off-target kinases [6]; read-out: % Inhibition 2) was 49% and the inhibition (off-target kinases [6]; read-out: % Inhibition Avg) was 45%. For the same molecule, the inhibition (off-target kinases [7]; read-out: % Inhibition 1) was 11%, the inhibition (off-target kinases [7]; read-out: % Inhibition 2) was 17% and the inhibition (off-target kinases [7]; read-out: % Inhibition Avg) was 14%. The inhibition (off-target kinases [8]; read-out: % Inhibition 1) was 58%, the inhibition (off-target kinases [8]; read-out: % Inhibition 2) was 60% and the inhibition (off-target kinases [8]; read-out: % Inhibition Avg) was 59%. It also gave an inhibition (off-target kinases [9]; read-out: % Inhibition 1) of 51%, an inhibition (off-target kinases [9]; read-out: % Inhibition 2) of 49% and an inhibition (off-target kinases [9]; read-out: % Inhibition Avg) of 50%. It also gave an inhibition (off-target kinases [10]; read-out: % Inhibition 1) of 20%, an inhibition (off-target kinases [10]; read-out: % Inhibition 2) of 24% and an inhibition (off-target kinases [10]; read-out: % Inhibition Avg) of 22%.

— patent US11572590B2, “Methods for evaluating tumor cell spheroids using 3D microfluidic cell culture device” (Dana-Farber Cancer Institute, Inc., priority 2017, dated 2023)
